Data: patent US20200362309A1, “Method for preparing BAP or BA cells” (Anagenesis Biotechnologies S.A.S., priority 2017, published 2020)

Test system: BA cells differentiated from hiPS-derived BAP
Test: Lipolysis: free glycerol release by BA cells after forskolin stimulation
Assay type: cell-based, human
Conditions: forskolin 10 μM, 24 hours; BAP derived at day 12 or 16, 5 passages, differentiated for 17 days
Method: Lipolysis: The BAP were differentiated for 17 days. Then the cells were maintained for 24 hours in DMEM 1g/Iglucose supplemented with BSA 0,2%. Lipolysis was stimulated with forskolin (10 μM) for 24 hours.

`C=C[C@@]1(C)CC(=O)[C@]2(O)[C@@]3(C)[C@@H](O)CCC(C)(C)[C@@H]3[C@H](O)[C@H](OC(C)=O)[C@@]2(C)O1` [forskolin] was tested, and the “increase of the free glycerol released, treated cells compared to untreated cells” value was “about 60%”.
